In patent US20150086504A1, “POLYMERIC MICROEMULSIONS” (Janssen Pharmaceutica NV, priority 2002, published 2015):
In brackets after ≈: the same amount, converted by molar mass. Like-named read-outs stand apart in the source and are kept apart here.

What was measured:
[1] = Solubility in water of model compounds (UV spectroscopy); conditions: for solubility in water: mixed with water for 24 hours, UV spectroscopy, mean of triplicate; for solubility at 24 h: water, thermodynamic from solid
[2] = Solubility of model compounds in aqueous solutions of polymer D4.1 (mixed directly with polymeric solution; Table 4B); format: physicochemical; conditions: room temperature, duplicate; for solubility at 24 h: thermodynamic from solid
Procedure: The solubility of the other model compounds in aqueous solutions of polymer D4.1 was determined by mixing the model compound directly with the polymeric solution for 24 hours at room temperature. Tested polymer concentrations were 1, 5, 10 and 20% (w/v). The obtained suspension was then filtered through a 0.45 μm PVDF membrane filter. The filtered solution was immediately diluted to allow determination of compound concentration by UV spectroscopy. (A polymer solution of the same concentration as the sample to be analysed was used as blank).

[3] = physchem; conditions: water, thermodynamic from solid
[4] = 24 h
[5] = Pharmacokinetic parameters in plasma (LCMS) after oral administration of risperidone solutions; format: in vivo, Male Wistar rats; conditions: rat plasma, active metabolite, micellar solution D4.3 10% (w/v) compared to reference solution
Procedure: Male Wistar rats (˜200 g) were treated by oral administration of vehicles of 2.5 mg/kg risperidone solubilized in three different vehicles (tartaric acid 0.625% v/v (as the reference), copolymer D4.3 1% (w/v) in water and D4.3 10% (w/v) in water). The animals were sacrificed by decapitation 2 hours after administration.
The above experiment was also performed in function of time for the reference solution and for the D4.3 10% (w/v) aqueous solution. Therefore, animals were sacrificed by decapitation at 10 minutes, 30 minutes, 1 hour, 2 hours, 4 hours, 8 hours, 16 hours and 24 hours after administration of the risperidone formulations. […] During this experiment, the usual pharmacokinetic parameters of the active metabolite following oral administration of the two risperidone solutions were determined by LCMS analysis of the plasma samples. […] This finding confirmed the results of an in vitro release study of risperidone from a micellar solution of the present invention. The in vitro release study was performed by dialysing a micellar solution of the invention containing C^14-radioactive risperidone against water and determining the radioactivity by liquid scintillation counting of samples taken from the water as a function of time.

[6] = D4.1 polymer concentration 1 w/v %
[7] = D4.1 polymer concentration 5 w/v %
[8] = D4.1 polymer concentration 10 w/v %
[9] = D4.1 polymer concentration 20 w/v %
[10] = 1% (w/v) aqueous solution of diblock copolymer D4.1, aqueous with cosolvent or surfactant or cyclodextrin, D4.1 polymer concentration 1 w/v %
[11] = 5% (w/v) aqueous solution of diblock copolymer D4.1, aqueous with cosolvent or surfactant or cyclodextrin, D4.1 polymer concentration 5 w/v %
[12] = 10% (w/v) aqueous solution of diblock copolymer D4.1, aqueous with cosolvent or surfactant or cyclodextrin, D4.1 polymer concentration 10 w/v %
[13] = 20% (w/v) aqueous solution of diblock copolymer D4.1, aqueous with cosolvent or surfactant or cyclodextrin, D4.1 polymer concentration 20 w/v %

Row | Structure (SMILES) | Solubility in aqueous solution of diblock copolymer D4.1 [2, 7] [µg/mL] | solubility at 24 h [1] [µg/mL] | solubility at 24 h [2, 10] [µg/mL] | solubility at 24 h [2, 11] [µg/mL] | solubility at 24 h [2, 12] [µg/mL] | solubility at 24 h [2, 13] [µg/mL] | solubility at 24 h [3] [µg/mL] | other results
1 | COc1cc2c(cc1OC)C1=NO[C@@H](CN3CCN(C/C(C)=C/c4ccc(F)cc4)CC3)[C@@H]1CO2 (relative stereo) [3-[[4-[(2E)-3-(4-fluorophenyl)-2-methyl-2-propenyl]-1-piperazinyl]methyl]-3a,4-dihydro-7,8-dimethoxy-3H-[1]benzopyrano[4,3-c]isoxazole [(3R,3aS)-rel-(+)]] | 1010 | – | – | – | – | – | – | solubility in water [1]: 3 µg/mL (≈ 6.23 µM); Solubility in aqueous solution of diblock copolymer D4.1 [2, 6]: 200 µg/mL; Solubility in aqueous solution of diblock copolymer D4.1 [2, 8]: 1880 µg/mL; Solubility in aqueous solution of diblock copolymer D4.1 [2, 9]: 3860 µg/mL
2 | CS(=O)(=O)O.O=c1c2c([nH]c3ccccc13)[C@@H](c1ccc3c(c1)CCO3)N(c1ccccn1)C2 [3-(2,3-dihydro-5-benzofuranyl)-1,2,3,4-tetrahydro-2-(2-pyridinyl)-9H-pyrrolo[3,4-b]quinolin-9-one, (3R) mono methanesulfonate] | 9830 | – | – | – | – | – | – | solubility in water [1]: 190 µg/mL; Solubility in aqueous solution of diblock copolymer D4.1 [2, 6]: 4370 µg/mL; Solubility in aqueous solution of diblock copolymer D4.1 [2, 8]: 12380 µg/mL; Solubility in aqueous solution of diblock copolymer D4.1 [2, 9]: 13950 µg/mL
3 | O=c1c2c([nH]c3ccccc13)[C@@H](c1ccc3c(c1)CCO3)N(c1ncc(-c3ccccn3)cn1)C2 [3-(2,3-dihydro-5-benzofuranyl)-1,2,3,4-tetrahydro-2-[5-(2-pyridinyl)-2-pyrimidinyl]-9H-pyrrolo[3,4-b]quinolin-9-one, (3R)] | 81 | – | – | – | – | – | – | solubility in water [1]: <1 µg/mL; Solubility in aqueous solution of diblock copolymer D4.1 [2, 6]: 18 µg/mL; Solubility in aqueous solution of diblock copolymer D4.1 [2, 8]: 150 µg/mL; Solubility in aqueous solution of diblock copolymer D4.1 [2, 9]: 280 µg/mL
4 | Cc1cc(C=CC#N)cc(C)c1Nc1ccnc(Nc2ccc(C#N)cc2)n1 [4-[[4-[[4-(2-cyanoethenyl)-2,6-dimethylphenyl]amino]-2-pyrimidinyl]amino]benzonitrile] | – | 0.02 (≈ 0.0546 µM) | 50 (≈ 136 µM) | 120 (≈ 327 µM) | 230 (≈ 628 µM) | 440 (≈ 1200 µM) | – | –
5 | Cc1cc2c(cc1-c1cc(/C=C3\SC(=O)NC3=O)ccc1OC(F)(F)F)C(C)(C)CCC2(C)C [(Z) 5-[[3-(5,6,7,8-tetrahydro-3,5,5,8,8-pentamethyl-2-naphthalenyl)-4-(trifluoromethoxy)phenyl]methylene]-2,4-thiazolidinedione] | – | – | 34 (≈ 69.5 µM) | 130 (≈ 266 µM) | 350 (≈ 715 µM) | 580 (≈ 1180 µM) | < 0.5 | –
6 | C[C@@H]1[C@H](O)[C@@H](C)/C=C/C=C/C=C/C=C/C=C/C=C/C=C/[C@H](O[C@@H]2O[C@H](C)[C@@H](O)[C@H](N)[C@@H]2O)C[C@@H]2O[C@](O)(C[C@@H](O)C[C@@H](O)[C@H](O)CC[C@@H](O)C[C@@H](O)CC(=O)O[C@H]1C)C[C@H](O)[C@H]2C(=O)O [Amphotericin B, amphotericin B] | – | – | – | – | – | – | 0.1 (≈ 0.108 µM) | –
7 | COc1ccc2c(c1)c(CC(=O)O)c(C)n2C(=O)c1ccc(Cl)cc1 [Indomethacin, indomethacin] | – | – | – | – | – | – | 10 (≈ 27.9 µM) | solubility in water [4]: 10 µg/mL (≈ 27.9 µM)
8 | CC(=O)N1CCN(c2ccc(OCC3COC(Cn4ccnc4)(c4ccc(Cl)cc4Cl)O3)cc2)CC1 (stereo not shown) [Ketoconazole, ketoconazole] | – | 10 (≈ 18.8 µM) | – | – | – | – | – | –
9 | Nc1nc(Nc2ccc(S(N)(=O)=O)cc2)nn1C(=O)c1c(F)cccc1F [N3-[4-(aminosulfonyl)phenyl]-1-(2,6-difluorobenzoyl)-1H-1,2,4-triazole-3,5-diamine] | – | – | 530 (≈ 1340 µM) | 2710 (≈ 6870 µM) | 5760 (≈ 14600 µM) | 13900 (≈ 35200 µM) | 15 (≈ 38 µM) | –
10 | CC(=O)NC[C@H]1CN(c2ccc(N3Cc4cn(C)nc4C3)c(F)c2)C(=O)O1 [N-[[(5S)-3-[4-(2,6-dihydro-2-methylpyrrolo[3,4-c]pyrazol-5(4H)-yl)-3-fluorophenyl]-2-oxo-5-oxazolidinyl]methyl]-acetamide] | – | 16 (≈ 42.9 µM) | 20 (≈ 53.6 µM) | 60 (≈ 161 µM) | 100 (≈ 268 µM) | 190 (≈ 509 µM) | – | –
11 | Cc1nc2n(c(=O)c1CCN1CCC(c3noc4cc(F)ccc34)CC1)CCCC2 [Risperidone, risperidone] | – | – | – | – | – | – | 60 (≈ 146 µM) | AUC [5]: slightly higher; Cmax [5]: lower; half-life [5]: longer
12 | Cc1cc(C)c(Nc2ccnc(Nc3ccc(C#N)cc3)n2)c(C)c1 [TMC 120, 4-[[4-[(2,4,6-trimethylphenyl)amino]-2-pyrimidinyl]amino]benzonitrile] | – | < 1 | – | – | – | – | – | –
13 | Cc1cc(C#N)cc(C)c1Oc1nc(Nc2ccc(C#N)cc2)nc(N)c1Br [TMC 125, 4-[[6-amino-5-bromo-2-[(4-cyanophenyl)amino]-4-pyrimidinyl]oxy]-3,5-dimethylbenzonitrile] | 300 | < 1 | 60 (≈ 138 µM) | – | 520 (≈ 1190 µM) | 870 (≈ 2000 µM) | – | –
